A value given as a limit tells only on which side of the number the result lay.

One may read the IC50 as the midpoint of a concentration-inhibition curve.

For the assay, the system named is Kuramochi cells. The experiment in a line: BrdU Cell Proliferation Assay. The format is cell-based. The conditions noted are these: read-out: BrdU - KURAMOCHI.1: IC50. As for the experimental part:
A BrdU assay was used as a measure of proliferation based on the DNA replication process of proliferating cells. BrdU, a pyrimidine analog, is added to the cell culture and incorporated into the DNA of proliferating cells. The presence of the BrdU analog was then measured through a colorimetric ELISA. After fixation and permeabilization of cells, peroxidase-conjugated antibody recognizing BrdU is added and allowed to incubate, followed by thorough washing to remove unbound antibody. In order to quantify the amount of bound antibody, peroxidase substrate is added and produces a color that can be measured at 450 nm.
On day −1, Kuramochi cells (Sekisui XenoTech JCRB0098) were seeded at 2,000 cells/well in columns 2-12 of a 96 well plate (Corning, CLS3596) in 150 μL media and allowed to adhere overnight at 37 degree with 5% CO2.
On day 0, the source plate was prepared by adding 10 mM compounds and performing 3-fold serial dilutions for a 10-point dose response of each compound. Using a multichannel pipette, 2 μL of the contents of the source plate were stamped into an intermediate plate with 500 μL of RPMI 1640 Media, GlutaMAX Supplement (Life Technologies, 61870127) in each well of a Nunc 96 DeepWell™ plate, non-treated 96 DeepWell plate, 2 mL/well, sterile, natural, 60/cs (Sigma Z717274) and mixed thoroughly. 50 μL from each well of this intermediate plate were added to 4 wells of a 96-well plate with previously seeded Kuramochi cells.
On day 4, the plates were developed using the BrdU ELISA Cell Proliferation Assay according to manufacturer's instructions (Roche, 11647229001). Briefly, BrdU was diluted 1:100 in Gibco®, OptiMEM® and 20 μL/well was added, shaken for 10 minutes at 350 rpm, and then returned to the incubator for 1 hour. Following incubation, the medium was discarded, and the cells were fixed by adding 200 μL of Fix/Denature solution. The anti-BrdU peroxidase antibody was diluted 1:1000 in OptiMEM, added at 100 μL/well, and incubated while shaking (350 rpm) for one hour. Three washes with PBS were performed to remove any unbound antibody, followed by the addition of 100 μL of substrate solution to each well. 25 μL/well of 1M sulfuric acid solution was then added to halt the reaction, and plates were read out using an Envision spectrophotometer (Perkin Elmer) set to read 450 nm absorbance. Background absorbance values from empty wells were subtracted from all samples and then normalized to DMSO treated wells.
`CNC(=O)[C@@H](NC(=O)[C@H]1CN(C(=O)c2cnn(Cc3ccccc3)c2)CC12CN(C(=O)[C@H]1CC1(C)C)C2)[C@H](C)OCC1CCCCC1` [I-165]: the IC50 is above 10 µM. Take `CNC(=O)[C@@H](NC(=O)[C@@H]1CN(C(=O)c2cnn(Cc3ccccc3)c2)CC12CN(C(=O)CC1CCC1)C2)[C@@H](C)OCc1ccccc1` [I-27A]: the IC50 was above 10 µM. Take `CC1(C)C[C@@H]1C(=O)N1CC2(CN(C(=O)c3cnn(Cc4ccccc4)c3)C[C@H]2C(=O)N2CCC[C@H](C(=O)NC3CCCCC3)C2)C1` [I-180]: the IC50 was above 10 µM.

Regarding `COc1cccc(CNC(=O)[C@H]2CN(C(=O)c3cnn(Cc4ccccc4)c3)CC23CN(C(=O)[C@H]2CC2(C)C)C3)n1` [I-126B], the IC50 was above 10 µM. In the case of `CNC(=O)[C@@H](NC(=O)[C@H]1CN(Cc2ccncc2)CC12CN(C(=O)[C@H]1CC1(C)C)C2)[C@@H](C)OCc1ccccc1` [I-55B], the 50% inhibitory concentration (IC50) was above 10 µM. On to `CC1(C)C[C@@H]1C(=O)N1CC2(CN(C(=O)c3cnn(Cc4ccccc4)c3)C[C@@H]2C(=O)NC2CCCN(C(=O)c3ccccc3)C2)C1` (stereo partly shown) [I-59B], for which the IC50 was above 10 µM. With `CNC(=O)[C@@H](NC(=O)[C@H]1CN(C(=O)c2cnn(Cc3ccccc3)c2)CC12CN(C(=O)CC1(COC)CC1)C2)[C@@H](C)OCc1ccccc1` [I-82B], the half-inhibitory concentration (IC50) was above 10 µM. Regarding `C[C@@H](OCC1CCCCC1)[C@H](NC(=O)[C@@H]1CN(C(=O)c2cnn(Cc3ccccc3)c2)CC12CN(C(=O)[C@H]1CC1(C)C)C2)C(=O)N1CC2(CNC2)C1` [I-240], the IC50 was above 10 µM. Regarding `C[C@@H]1C[C@H](C)CN(C(=O)[C@@H](NC(=O)C2CN(C(=O)c3cncs3)CC23CN(C(=O)[C@H]2CC2(C)C)C3)[C@@H](C)OCC2CCCCC2)C1` (stereo partly shown) [I-172], the IC50 is at most 0.5 µM. In the case of `C[C@@H](OCC1CCCCC1)[C@H](NC(=O)C1CN(C(=O)C2CCC(=O)N(C)C2)CC12CN(C(=O)[C@H]1CC1(C)C)C2)C(=O)N1CCCCC1` (stereo partly shown) [I-242], the IC50 was above 10 µM. Regarding `CO[C@@H]1CC[C@H](NC(=O)[C@@H]2CN(C(=O)c3cnn(Cc4ccccc4)c3)CC23CN(C(=O)[C@H]2CC2(C)C)C3)C1` [I-248], the concentration for half-maximal inhibition (IC50) was above 10 µM. For `CNC(=O)[C@@H](NC(=O)[C@H]1CN(C(=O)c2cncs2)CC12CN(C(=O)[C@H]1CC1(C)C)C2)[C@@H](C)OCc1ccccc1` [I-24B], the IC50 was above 10 µM. The same measure for `CNC(=O)[C@@H](NC(=O)[C@@H]1CN(C(=O)c2cnn(Cc3ccccc3)c2)CC12CN(C(=O)[C@H]1CC1(C)C)C2)[C@@H](C)OCC1CCOCC1` [I-119A]: above 10 µM.

On to `CC1(C)C[C@@H]1C(=O)N1CC2(CN(C(=O)c3cnn(Cc4ccccc4)c3)C[C@H]2C(=O)NC2CCNC(=O)C2)C1` (stereo partly shown) [I-223], for which the 50% inhibitory concentration (IC50) was above 10 µM. Consider `CC1(C)C[C@@H]1C(=O)N1CC2(CN(C(=O)c3cnn(Cc4ccccc4)c3)C[C@@H]2C(=O)Nc2ccc(Cc3ccccc3)nc2)C1` [I-168], for which the IC50 is above 10 µM.

For `CNC(=O)[C@@H](NC(=O)[C@@H]1CN(Cc2cn[nH]c2)CC12CN(C(=O)[C@H]1CC1(C)C)C2)[C@@H](C)OCc1ccccc1` [I-50A], the IC50 is above 10 µM. The same measure for `CNC(=O)[C@@H](NC(=O)[C@H]1CN(C(=O)c2cnn(Cc3ccccc3)c2)CC12CN(C(=O)[C@H]1CC1(C)C)C2)[C@@H](C)OCC(C)(C)C` [I-130B]: above 10 µM; for `CNC(=O)[C@@H](NC(=O)[C@@H]1CN(C(=O)c2scnc2C2CC2)CC12CN(C(=O)[C@H]1CC1(C)C)C2)[C@@H](C)OCC1CCCCC1` [I-185A]: above 10 µM. For the molecule `CNC(=O)[C@@H](NC(=O)[C@@H]1CN(Cc2cnn(Cc3ccccc3)c2)CC12CN(C(=O)[C@H]1CC1(C)C)C2)[C@@H](C)OCc1ccccc1` [I-16A], the IC50 was above 10 µM. With `CNC(=O)[C@@H](NC(=O)[C@H]1CN(C(=O)c2cnc(CC3CC3)s2)CC12CN(C(=O)[C@H]1CC1(C)C)C2)[C@@H](C)OCC1CCCCC1` [I-177B], the IC50 was above 10 µM. The same measure for `COC(=O)[C@@H](CO)NC(=O)[C@@H]1CN(C(=O)c2cnn(Cc3ccccc3)c2)CC12CN(C(=O)[C@H]1CC1(C)C)C2` [I-187A]: above 10 µM. Consider `CNC(=O)[C@@H](NC(=O)[C@@H]1CN(C(=O)c2ccccn2)CC12CN(C(=O)[C@H]1CC1(C)C)C2)[C@@H](C)OCc1ccccc1` [I-45A], for which the IC50 is above 10 µM. Take `CC1(C)C[C@@H]1C(=O)N1CC2(CN(C(=O)c3cnn(Cc4ccccc4)c3)C[C@H]2C(=O)N[C@H]2CCCN(C(=O)C3CCCCC3)C2)C1` [I-182]: the IC50 lay in the range of 5 to 10 µM. As to `CNC(=O)[C@@H](NC(=O)[C@H]1CN(C(=O)c2cnn(Cc3ccccc3)c2)CC12CN(C(=O)Cc1ccccc1)C2)[C@@H](C)OCc1ccccc1` [I-25B], the IC50 is above 10 µM. The same measure for `CNC(=O)[C@H](CCCc1ccccc1)NC(=O)[C@@H]1CN(C(=O)c2cnn(Cc3ccccc3)c2)CC12CN(C(=O)[C@H]1CC1(C)C)C2` [I-101A]: above 10 µM; for `CNC(=O)[C@@H](NC(=O)[C@H]1CN(C(=O)c2cnn(Cc3ccccc3)c2)CC12CN(C(=O)[C@H]1CC1(C)C)C2)[C@@H](C)OCC1CCC1` [I-144B]: above 10 µM; for `CNC(=O)[C@@H](NC(=O)[C@@H]1CN(C(=O)c2cnn(Cc3ccccc3)c2)CC12CN(C(=O)[C@H]1CC1(C)C)C2)C(C)(C)SCc1ccccc1` [I-171A, (S)-6-(1-benzyl-1H-pyrazole-4-carbonyl)-N—((R)-3-(benzylthio)-3-methyl-1-(methylamino)-1-oxobutan-2-yl)-2-((S)-2,2-dimethylcyclopropane-1-carbonyl)-2,6-diazaspiro[3.4]octane-8-carboxamide]: above 10 µM. As to `CC1(C)C[C@@H]1C(=O)N1CC2(CN(C(=O)c3cnn(Cc4ccccc4)c3)C[C@H]2C(=O)NCc2nc3ccccc3o2)C1` [I-230], the IC50 was above 10 µM.

On to `C[C@@H](OCc1ccccc1)[C@H](NC(=O)C1CN(C(=O)c2cnn(Cc3ccccc3)c2)CC12CN(C(=O)[C@H]1CC1(C)C)C2)C(=O)N1CCNCC1` (stereo partly shown) [I-32], for which the IC50 is above 10 µM. The same measure for `CNC(=O)[C@@H](NC(=O)[C@@H]1CN(C(=O)c2cnn(Cc3ccccc3)c2)CC12CN(C(=O)CC1(COC)CC1)C2)[C@@H](C)OCc1ccccc1` [I-82A]: above 10 µM; for `CC1(C)C[C@@H]1C(=O)N1CC2(CN(C(=O)c3cnn(Cc4ccccc4)c3)C[C@@H]2C(=O)N[C@H]2CCCN(C(=O)c3ccccc3)C2)C1` [I-83B]: above 10 µM. On to `CNC(=O)[C@@H](NC(=O)[C@H]1CN(C(=O)C2CCNC2)CC12CN(C(=O)[C@H]1CC1(C)C)C2)[C@@H](C)OCc1ccccc1` (stereo partly shown) [I-70B], for which the half-inhibitory concentration (IC50) was above 10 µM. For the molecule `CC1(C)C[C@@H]1C(=O)N1CC2(CN(C(=O)c3cnn(Cc4ccccc4)c3)C[C@@H]2C(=O)N[C@H]2C[C@@H]2c2cccc(Cl)c2)C1` [I-140B], the IC50 is above 10 µM. The same measure for `CCCC(=O)N1CC2(C1)CN(C(=O)c1cnn(Cc3ccccc3)c1)C[C@H]2C(=O)N[C@H](C(=O)NC)[C@@H](C)OCc1ccccc1` [I-60A]: above 10 µM. Take `C[C@@H](OCc1ccccc1)C(NC(=O)C1CN(C(=O)c2cnn(Cc3ccccc3)c2)CC12CN(C(=O)[C@H]1CC1(C)C)C2)C(=O)NCCOCCOCCO` (stereo partly shown) [I-21]: the IC50 was above 10 µM. Take `CNC(=O)[C@@H](NC(=O)[C@@H]1CN(C(=O)c2cn[nH]c2)CC12CN(C(=O)[C@H]1CC1(C)C)C2)[C@@H](C)OCC1CCCCC1` [I-66A, (S)—N-((2S,3R)-3-(cyclohexylmethoxy)-1-(methylamino)-1-oxobutan-2-yl)-2-((S)-2,2-dimethylcyclopropane-1-carbonyl)-6-(1H-pyrazole-4-carbonyl)-2,6-diazaspiro[3.4]octane-8-carboxamide]: the half-inhibitory concentration (IC50) was above 10 µM. As to `CNC(=O)[C@@H](NC(=O)[C@@H]1CN(C(=O)c2cnn(CC3CCN(C)CC3)c2)CC12CN(C(=O)[C@H]1CC1(C)C)C2)[C@@H](C)OCc1ccccc1` [I-23A], the half-inhibitory concentration (IC50) was above 10 µM.

On to `CNC(=O)[C@@H](NC(=O)[C@@H]1CN(C(=O)c2cnn(Cc3ccccc3)c2)CC12CN(C(=O)C1(C)CC1)C2)[C@@H](C)OCc1ccccc1` [I-67A, (S)-6-(1-benzyl-1H-pyrazole-4-carbonyl)-N-((2S,3R)-3-(benzyloxy)-1-(methylamino)-1-oxobutan-2-yl)-2-(1-methylcyclopropane-1-carbonyl)-2,6-diazaspiro[3.4]octane-8-carboxamide], for which the half-inhibitory concentration (IC50) was above 10 µM. `CC1(C)C[C@@H]1C(=O)N1CC2(CN(C(=O)c3cnn(Cc4ccccc4)c3)C[C@@H]2C(=O)N[C@@H]2CC[C@@H]2O)C1` [I-201A]: the concentration for half-maximal inhibition (IC50) was above 10 µM. The same measure for `Cc1n[nH]c(C(=O)N2C[C@@H](C(=O)N[C@H](C(=O)N3CCCCC3)[C@@H](C)OCC3CCCCC3)C3(C2)CN(C(=O)[C@H]2CC2(C)C)C3)n1` [I-241]: above 10 µM.
